Literature values, collected in publication PMC5852172, “Characterization of antimicrobial and hemolytic properties of short synthetic cationic lipopeptides based on QSAR/QSTR approach” (Amino Acids, 2017).

Tests used:
[1] = test system: Enterococcus faecalis (ATCC 29212); conditions: minimum inhibitory concentration, CLSI procedure, E. faecalis ATCC 29212; ref [1] Greber et al. 2017
From the text: Supplement 726_2017_2530_MOESM1_ESM.docx, table 1: Table 1S. Antimicrobial activity toward Gram-positive strains and toxicity toward human red blood cells. | column: Enterococcus fecalis

[2] = test system: S. epidermidis (PCM 2118); conditions: minimum inhibitory concentration, CLSI procedure, ref [1] Greber et al. 2017
From the text: Supplement 726_2017_2530_MOESM1_ESM.docx, table 1: Table 1S. Antimicrobial activity toward Gram-positive strains and toxicity toward human red blood cells. | column: Staphylococcus epidermidis

[3] = test system: Staphylococcus aureus (ATCC 25923); conditions: minimum inhibitory concentration, CLSI procedure, S. aureus ATCC 25923; ref [1] Greber et al. 2017
From the text: Supplement 726_2017_2530_MOESM1_ESM.docx, table 1: Table 1S. Antimicrobial activity toward Gram-positive strains and toxicity toward human red blood cells. | column: Staphylococcus aureus

human red blood cells = conditions: lowest concentration of lipopeptide inducing 10% hemolysis of human red blood cells; ref [1] Greber et al. 2017
From the text: Supplement 726_2017_2530_MOESM1_ESM.docx, table 1: Table 1S. Antimicrobial activity toward Gram-positive strains and toxicity toward human red blood cells. | column: Haemolysis

[4] = test system: Bacillus subtilis (ATCC 6633); conditions: minimum inhibitory concentration, CLSI procedure, B. subtilis ATCC 6633; ref [1] Greber et al. 2017
From the text: Supplement 726_2017_2530_MOESM1_ESM.docx, table 1: Table 1S. Antimicrobial activity toward Gram-positive strains and toxicity toward human red blood cells. | column: Bacillus subtillis

| Substance | Enterococcus fecalis MIC [1] [µg/mL] | Staphylococcus epidermidis MIC [2] [µg/mL] | Staphylococcus aureus MIC [3] [µg/mL] | Haemolysis MHC (human red blood cells) [µg/mL] | Bacillus subtillis MIC [4] [µg/mL] |
| --- | --- | --- | --- | --- | --- |
| C16-KK-NH2 | 8 | 4 | 8 | 256 | 4 |
| C16-KKK-NH2 | 16 | 4 | 8 | 32 | 8 |
| C16-KKKK-NH2 | 16 | 4 | 4 | 16 | 4 |
